Test results from PubChem BioAssay AID1963958 (Molecular Pharmacology Branch, DTP, NCI, 2024).

System: MDA-MB-231 multicell spheroids, viability
Assay: Anticancer human tumor MDA-MB-231 cell line growth inhibition [PI3K];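 note: spheroids exposed to agents for seven days before reading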;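 for viability, T/C: percent of vehicle control luminescence with DMSO treated spheroids as 100%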
Conditions: for IC50: curve of first compound; for viability, T/C: stronger effect = lower value; active = viability on the fitted dose curve at most 10% of control; inactive = the rest
Procedure, shortened: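 Complex 3D spheroids (cancer cells + endothelial HUVEC + mesenchymal stem cells); drug pairs of targeted agent x inavolisib/alpelisib/duvelisib/copanlisib; half-log series from ~Cmax, max 10 microM if Cmax unknown; endpoint viability.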

[1] = second compound 0.0316 µM, first compound 0.0316 µM
[2] = second compound 0.0316 µM, first compound 0.1 µM
[3] = second compound 0.1 µM, first compound 0.0316 µM
[4] = second compound 0.1 µM, first compound 0.1 µM
[5] = second compound 0.316 µM, first compound 0.0316 µM
[6] = second compound 0.316 µM, first compound 0.1 µM
[7] = second compound 1 µM, first compound 0.0316 µM
[8] = second compound 1 µM, first compound 0.1 µM
[9] = second compound 3.16 µM, first compound 0.0316 µM
[10] = second compound 3.16 µM, first compound 0.1 µM
[11] = second compound 10 µM, first compound 0.0316 µM
[12] = second compound 10 µM, first compound 0.1 µM

CC(C)n1nc(-c2ccc3oc(N)nc3c2)c2c(N)ncnc21 + Cc1nc(NC(=O)N2CCCC2C(N)=O)sc1-c1ccnc(C(C)(C)C(F)(F)F)c1
25.3 nM: IC50 (second compound 0.1 µM)
10.9 nM: IC50 (second compound 0.316 µM)
inactive: viability, T/C (second compound 0.0316 µM, first compound 0.000316 µM) 94% | viability, T/C (second compound 0.0316 µM, first compound 0.001 µM) 85.8% | viability, T/C (second compound 0.0316 µM, first compound 0.00316 µM) 80.9% | viability, T/C (second compound 0.0316 µM, first compound 0.01 µM) 69.3% | viability, T/C [1] 55.3% | viability, T/C [2] 35.2% | viability, T/C (second compound 0.1 µM, first compound 0.000316 µM) 85.7% | viability, T/C (second compound 0.1 µM, first compound 0.001 µM) 85.7% | viability, T/C (second compound 0.1 µM, first compound 0.00316 µM) 71.2% | viability, T/C (second compound 0.1 µM, first compound 0.01 µM) 65.2% | viability, T/C [3] 45.9% | viability, T/C [4] 31.3% | viability, T/C (second compound 0.316 µM, first compound 0.000316 µM) 73% | viability, T/C (second compound 0.316 µM, first compound 0.001 µM) 72% | viability, T/C (second compound 0.316 µM, first compound 0.00316 µM) 60.2% | viability, T/C (second compound 0.316 µM, first compound 0.01 µM) 50.6% | viability, T/C [5] 39.6% | viability, T/C [6] 27.7% | viability, T/C (second compound 1 µM, first compound 0.000316 µM) 68.3% | viability, T/C (second compound 1 µM, first compound 0.001 µM) 58% | viability, T/C (second compound 1 µM, first compound 0.00316 µM) 55.5% | viability, T/C (second compound 1 µM, first compound 0.01 µM) 49.1% | viability, T/C [7] 35% | viability, T/C [8] 23.6% | viability, T/C (second compound 3.16 µM, first compound 0.000316 µM) 66.4% | viability, T/C (second compound 3.16 µM, first compound 0.001 µM) 63.2% | viability, T/C (second compound 3.16 µM, first compound 0.00316 µM) 54.1% | viability, T/C (second compound 3.16 µM, first compound 0.01 µM) 41.4% | viability, T/C [9] 34.8% | viability, T/C [10] 25.3% | viability, T/C (second compound 10 µM, first compound 0.000316 µM) 62.3% | viability, T/C (second compound 10 µM, first compound 0.001 µM) 56% | viability, T/C (second compound 10 µM, first compound 0.00316 µM) 50.4% | viability, T/C (second compound 10 µM, first compound 0.01 µM) 43.9% | viability, T/C [11] 33.8% | viability, T/C [12] 28.5%
3.17 nM: IC50 (second compound 10 µM)
4.81 nM: IC50 (second compound 3.16 µM)
42.2 nM: IC50 (second compound 0.0316 µM)
6.29 nM: IC50 (second compound 1 µM)

CC1(C)CCC(CN2CCN(c3ccc(C(=O)NS(=O)(=O)c4ccc(NCC5CCOCC5)c([N+](=O)[O-])c4)c(Oc4cnc5[nH]ccc5c4)c3)CC2)=C(c2ccc(Cl)cc2)C1 + Cc1nc(NC(=O)N2CCCC2C(N)=O)sc1-c1ccnc(C(C)(C)C(F)(F)F)c1
inactive: viability, T/C [1] 93.7% | viability, T/C [2] 101% | viability, T/C (second compound 0.0316 µM, first compound 0.316 µM) 96% | viability, T/C (second compound 0.0316 µM, first compound 1 µM) 101% | viability, T/C (second compound 0.0316 µM, first compound 3.16 µM) 107% | viability, T/C (second compound 0.0316 µM, first compound 10 µM) 14.4% | viability, T/C [3] 89.2% | viability, T/C [4] 90.3% | viability, T/C (second compound 0.1 µM, first compound 0.316 µM) 87.7% | viability, T/C (second compound 0.1 µM, first compound 1 µM) 90.8% | viability, T/C (second compound 0.1 µM, first compound 3.16 µM) 97% | viability, T/C (second compound 0.1 µM, first compound 10 µM) 16.8% | viability, T/C [5] 77.9% | viability, T/C [6] 79.6% | viability, T/C (second compound 0.316 µM, first compound 0.316 µM) 79.2% | viability, T/C (second compound 0.316 µM, first compound 1 µM) 79.6% | viability, T/C (second compound 0.316 µM, first compound 3.16 µM) 83.5% | viability, T/C (second compound 0.316 µM, first compound 10 µM) 22.9% | viability, T/C [7] 72.5% | viability, T/C [8] 73.4% | viability, T/C (second compound 1 µM, first compound 0.316 µM) 71.7% | viability, T/C (second compound 1 µM, first compound 1 µM) 73.4% | viability, T/C (second compound 1 µM, first compound 3.16 µM) 74% | viability, T/C (second compound 1 µM, first compound 10 µM) 13.1% | viability, T/C [9] 69.8% | viability, T/C [10] 65.9% | viability, T/C (second compound 3.16 µM, first compound 0.316 µM) 67.7% | viability, T/C (second compound 3.16 µM, first compound 1 µM) 72.7% | viability, T/C (second compound 3.16 µM, first compound 3.16 µM) 66% | viability, T/C [11] 65.8% | viability, T/C [12] 67.4% | viability, T/C (second compound 10 µM, first compound 0.316 µM) 58.5% | viability, T/C (second compound 10 µM, first compound 1 µM) 63.1% | viability, T/C (second compound 10 µM, first compound 3.16 µM) 62% | viability, T/C (second compound 10 µM, first compound 10 µM) 16.7%
5800 nM: IC50 (second compound 0.316 µM)
6180 nM: IC50 (second compound 0.0316 µM)
4360 nM: IC50 (second compound 3.16 µM)
5980 nM: IC50 (second compound 0.1 µM)
active: viability, T/C (second compound 3.16 µM, first compound 10 µM) 8.11%
4290 nM: IC50 (second compound 10 µM)
4920 nM: IC50 (second compound 1 µM)
